Legend:
[1] = cited from earlier work
[2] = tested on: red blood cells; assay: Hemolytic activity assay (hemoglobin release from red blood cells); assay type: cell-based
Procedure: FIG. 7 provides hemolytic activity for Cytochrome C, OA, SD, HIP CytC OA, and HIP CytC SD at 37° C. and 4° C. to show the influence of membrane stiffness on membrane interaction, in accordance with some embodiments of the present disclosure. 20 μM CytC was given to each group and the concentration of counterion given was consistent with the charge ratios used for delivery experiments. Washed red blood cells were diluted to 0.5% v/v in PBS and 1% v/v Triton X-100 was used as the positive control.
Washed red blood cells (RBC's) were diluted to a 5% v/v concentration in PBS. 100 μL of nanoparticles or treatment were incubated with 10 μL RBC's at 37° C. for 1 hour in a 96 well plate. After incubation with HIP treatment groups, the microplate reader was used to measure released hemoglobin from membrane disruption using 541 nm and subtracting background at 561 nm, then normalizing hemolytic activity to 5% Triton X-100. For imaging RBC's and NIH3T3/eGFP cells, an epifluorescent microscope (Zeiss Axio Observer Z1) with an 40× lens. […]

[3] = Dynamic light scattering: z-average size and polydispersity of HIP complexes; assay type: physicochemical; details: DLS
Procedure: Size and zeta potential were measured using dynamic light scattering (DLS) using Malvern Instruments Zetasizer NanoZS intensity mode with a 4 mW He—Ne laser with 633 nm wavelength to detect backscattering) (173° using 1× for DLS or 0.1× PBS for zeta potential at pH 7.4 solvent conditions and protein material selection. Z-average values were used for HIP complex size. Electrophoretic mobility was converted to zeta potential using the Smoluchowski approximation. Imaging of solutions was performed using an epifluorescence microscope (Zeiss Axio Observer Z1) using a 100× oil immersion lens. Transmission electron microscopy (TEM) grids were prepared using 10 μL sample on copper grids, letting the sample adhere for 5 minutes, washing in water for 30 seconds, staining with 1% phosphotungstic acid for 10 seconds, washing again for 30 seconds, and drying overnight. A JEOL 100 CX-II TEM was utilized to visualize samples.

Row | Molecule | Log P [1] | hemolytic activity at reduced temperature ([2]; 4° C. compared with 37° C.) | polydispersity index (PDI) [3] | z-average hydrodynamic diameter ([3]; 1× PBS pH 7.4) [nm] | relative hemolytic activity ([2]; 37° C., same concentration as in HIP CytC complexes)
1 | c1ccc(CCNCc2ccccc2)cc1 [benethamine, N-benzyl-2-phenylthanamine] | 3.6 | – | – | – | –
2 | CCCCC(CC)COC(=O)CC(C(=O)OCC(CC)CCCC)S(=O)(=O)[O-].[Na+] (stereo not drawn) [sodium docusate, reference compound] | 5.2 | remained high | – | – | –
3 | CytC: 12.4 kDa positively charged protein; induces apoptosis upon delivery to the mitochondrial membrane | – | – | 0.542±0.17 | 729±460 | greater than 100%

Reference: US20260232758A1, “Low Cost Efficient Intracellular Delivery of Proteins and Nucleic Acids via Hydrophobic Ion Pairing” (Georgia Tech Research Corporation, priority 2023, published 2026)
